Measured values as given in PMC6826623 (2019).

Experiments:
Experiment in all cases: UV-Vis absorption titration at 316 nm
[1] = system: hTelo (DNA, G4) AGGGTTAGGGTTAGGGTTAGGG; conditions: 50 mM Tris-HCl
[2] = system: c-MYC (DNA, G4) TGGGGAGGGTGGGGAGGGTGGGGAAGG; conditions: 100 mM K+, 50 mM Tris-HCl, pH 7.4, parallel G4, per base
[3] = system: 2HY9 (DNA, G4) AAAGGGTTAGGGTTAGGGTTAGGGAA; conditions: 100 mM K+, 50 mM Tris-HCl, pH 7.4, hybrid G4, per base

Kb ([1]; 100 mM K+, pH 7.4, 40% (w/v) PEG 200, parallel G4, per base): (3.5 ± 0.9) × 10^5 M^-1 | Kb ([1]; 100 mM Na+, pH 7.4, antiparallel G4, per base): (2.69 ± 0.06) × 10^5 M^-1 | Kb [2]: (1.0 ± 0.1) × 10^5 M^-1 | Kb [3]: (1.1 ± 0.1) × 10^5 M^-1
Compound: COc1ccc2c(c[n+](C)c3c4cc5c(cc4ccc23)OCO5)c1OC
